Measurements: ChEMBL document CHEMBL2406972, “Synthesis and antitumor activities of novel dibenzo[b,d]furan-imidazole hybrid compounds” (Eur J Med Chem, 2013)

Experiments:
Assay type in all cases: functional, cell-based
SMMC-7721 = experiment: Cytotoxicity against human SMMC7721 cells after 48 hrs by MTT assay; conditions: SMMC-7721, 48 h
SW480 = experiment: Cytotoxicity against human SW480 cells after 48 hrs by MTT assay; conditions: SW480, 48 h
A549 = experiment: Cytotoxicity against human A549 cells after 48 hrs by MTT assay; conditions: A549, 48 h
MCF7 = experiment: Cytotoxicity against human MCF7 cells after 48 hrs by MTT assay; conditions: MCF7, 48 h
HL-60 = experiment: Cytotoxicity against human HL60 cells after 48 hrs by MTT assay; conditions: HL-60, 48 h

SMILES | IC50 (SMMC-7721) [µM] | IC50 (SW480) [µM] | IC50 (A549) [µM] | IC50 (MCF7) [µM] | IC50 (HL-60) [µM]
Cc1nccn1C(C)c1ccc2oc3ccccc3c2c1 (stereo not given) | > 40 | 21.4 | 16.2 | 18.7 | 10.9
CC(c1ccc2oc3ccccc3c2c1)n1c[n+](CC(=O)c2ccc(Br)cc2)c2ccccc21 (stereo not given) | 2.62 | 3.18 | 3.54 | 3.08 | 0.66
COc1ccc(C(=O)C[n+]2cn(C(C)c3ccc4oc5ccccc5c4c3)c3ccccc32)cc1 (stereo not given) | 2.95 | 3.18 | 5.95 | 3.42 | 2.05
O=C(C[n+]1ccn(C(c2ccccc2)c2ccc3oc4ccccc4c3c2)c1)c1ccc2ccccc2c1 (stereo not given) | 3.61 | 2.57 | 5.86 | 2.78 | 1.91
CC(c1ccc2oc3ccccc3c2c1)n1c[n+](CC(=O)c2ccc(O)cc2)c2ccccc21 (stereo not given) | 24.1 | 16.3 | 20.1 | 14.2 | 2.35
Cc1nccn1C(c1ccccc1)c1ccc2oc3ccccc3c2c1 (stereo not given) | 30.2 | > 40 | 18.2 | 23.5 | 14.5
CC(c1ccc2oc3ccccc3c2c1)n1cc[n+](Cc2ccc([N+](=O)[O-])cc2)c1 (stereo not given) | 22.5 | > 40 | > 40 | 13.8 | 11.3
Cc1n(C(c2ccccc2)c2ccc3oc4ccccc4c3c2)cc[n+]1CC(=O)c1ccc(F)cc1 (stereo not given) | 4.22 | 1.89 | 4.88 | 3.23 | 2.13
Cc1n(C(C)c2ccc3oc4ccccc4c3c2)cc[n+]1CC(=O)c1ccc(O)cc1 (stereo not given) | 13.3 | 37.5 | 28.6 | 26.4 | 12.2
Cc1n(C(C)c2ccc3oc4ccccc4c3c2)cc[n+]1CC(=O)c1ccc2ccccc2c1 (stereo not given) | 2.15 | 3.09 | 3.86 | 1.65 | 0.6
Cc1n(C(c2ccccc2)c2ccc3oc4ccccc4c3c2)cc[n+]1CC(=O)c1ccc(O)cc1 (stereo not given) | 8.84 | 14.3 | 26.2 | 11.8 | 3.92
c1ccc(C(c2ccc3oc4ccccc4c3c2)n2ccnc2)cc1 (stereo not given) | 33.7 | > 40 | 24.6 | > 40 | 21
CC(c1ccc2oc3ccccc3c2c1)n1cc[n+](CC(=O)c2ccc(Br)cc2)c1 (stereo not given) | 11 | 6.85 | 13.7 | 4.08 | 2.95
COc1ccc(C(=O)C[n+]2ccn(C(c3ccccc3)c3ccc4oc5ccccc5c4c3)c2C)cc1 (stereo not given) | 2.08 | 3.73 | 1.9 | 2.42 | 0.59
Cc1n(C(c2ccccc2)c2ccc3oc4ccccc4c3c2)cc[n+]1CC(=O)c1ccc(Br)cc1 (stereo not given) | 3.93 | 1.98 | 9.46 | 3.45 | 2.25
O=C(C[n+]1ccn(C(c2ccccc2)c2ccc3oc4ccccc4c3c2)c1)c1ccc(F)cc1 (stereo not given) | 14.5 | 5.16 | 10.2 | 4 | 3
O=[N+]([O-])c1ccc(C[n+]2cn(C(c3ccccc3)c3ccc4oc5ccccc5c4c3)c3ccccc32)cc1 (stereo not given) | 13.2 | 16.7 | 21.7 | 9.26 | 4.6
CC(c1ccc2oc3ccccc3c2c1)n1c[n+](CC(=O)c2ccccc2)c2ccccc21 (stereo not given) | 8.51 | 14.6 | 18.1 | 12.5 | 2.46
CCCC[n+]1ccn(C(c2ccccc2)c2ccc3oc4ccccc4c3c2)c1C (stereo not given) | 13.1 | 28.4 | 21.4 | 11.9 | 3.81
CC(c1ccc2oc3ccccc3c2c1)n1c[n+](Cc2ccc([N+](=O)[O-])cc2)c2ccccc21 (stereo not given) | 18.4 | 13.4 | 32.3 | 13.8 | 5.93
c1ccc(C(c2ccc3oc4ccccc4c3c2)n2cnc3ccccc32)cc1 (stereo not given) | 25.4 | > 40 | 23.4 | 20.9 | 17.2
Cc1n(C(C)c2ccc3oc4ccccc4c3c2)cc[n+]1CC(=O)c1ccccc1 (stereo not given) | 3.02 | 10.1 | 17.9 | 4.49 | 2.85
CC(c1ccc2oc3ccccc3c2c1)n1ccnc1 (stereo not given) | > 40 | > 40 | > 40 | > 40 | > 40
O=[N+]([O-])c1ccc(C[n+]2ccn(C(c3ccccc3)c3ccc4oc5ccccc5c4c3)c2)cc1 (stereo not given) | 15.3 | 19.1 | 28.6 | 10.3 | 10.8
